Assays:
[1] = molecular target: PFKFB3 (Homo sapiens (Human), UniProt Q16875); test: PFKFB3 kinase activity, Method A (F-2,6-P2 production, coupled PPi-PFK/NADH assay); assay type: biochemical
Text: (§1) The PFKFB3 (placenta form) and PFKFB4 were produced and purified to homogeneity from E. coli at Biovitrum and at Sprint Bioscience. All other reagents were purchased from commercial sources. Two independent methods have been used for determination of the kinase activity of PFKFB3 (Method A and Method B). Method B has been used for determination of the kinase activity of PFKFB4.
Method A: The kinase activity of the bi-functional enzyme is readily quantified based on the production of F-2,6-P2 as described by Van Schaftingen et al. (1982) Eur. J. Biochem. 129, 191-5. This sensitive assay is based on the potent activation of pyrophosphate dependent phosphofructokinase-1 (PPi-PFK) from potato tubers by F-2,6-P2. The use of a series of coupled enzymes leads to a consumption of NADH (nicotinamide adenine dinucleotide) that can be followed spectrophotometrically (an updated protocol is available in Van Schaftingen, (1984) Methods of Enzymatic Analysis (Bergmeyer, H. U., ed.), 3rd edn., vol. 6, pp. 335-341, Verlag Chemie, Weinheim). A protocol for measurements in 96-well microtiter plate format is also available (Bruni et al., (1989) Anal. Biochem. 178, 324-6). These assay protocols have been adopted for the measurement of the kinase activity of PFKFB3 with some modifications as described in the protocol below.
The assay was run in 96-well microtiter plates (Costar 3365 round bottom polypropylene) by consecutive additions of 30 μl each of a test compound solution (diluted from a DMSO stock solution), a PFKFB3 solution and a substrate (fructose-6-phosphate (F6P) and adenosine-5′-triphosphate (ATP)) containing solution. […] The final concentrations of all reagents in a total assay volume of 90 μl per well were: • 50 mM Tris-acetate at pH 8.0 • 0.1 mM EDTA (ethylene diamine tetraacetic acid) • 10 mM MgCl2 • 5 mM Na2HPO4 (buffered by the Tris-acetate to a final pH of 8.0) • 5 nM PFKFB3 • 4 μM ATP • 100 μM F6P (acid treated and then neutralized to remove any contaminating F-2,6-P2; see Van Schaftingen, 1984) • 1 mM dithiothreitol (DTT) • 0.005% Tween-20
A test compound at various concentrations (which also added 0.83% DMSO to the final solution)
The enzymatic reaction was allowed to proceed for 10 minutes at room temperature while on a plate shaker at medium speed (750 RPM). The reaction was then terminated by the addition of 90 μl of a 0.4 M NaOH solution to all wells. The plate was then placed on the plateshaker at the same speed for two minutes to allow sufficient mixing. All samples were then diluted by a factor of 10 by transferring 20 μl from each well to the corresponding well of a new plate with 180 μl distilled water predispensed to all wells.
The next step in the protocol was quantification of the levels of F-2,6-P2 in each well of the microtiter plate. This was done by transferring 20 μl of the content in each well to the corresponding position in a new plate (Nunc 269620 transparent 96-well plate). […] To ensure that all measured values were within the linear range of the response (measured to be between 0-1 nM of F-2,6-P2 as also described by Van Schaftingen) the same volume of a 2.5 nM and a 5.0 nM standard sample were also added to column 12 (as all samples were diluted five-fold in the assay procedure this corresponds to 0.5 and 1.0 nM samples). The procedure then involved consecutive additions of three solutions with the following premixed components: • Assay-mix (20 μl): Tris-acetate at pH 8.0, NADH and Mg(OAc)2 • PPi/F6P-mix (40 μl): Pyrophosphate and F6P • Enzyme-mix (20 μl): Tris-acetate at pH 8.0, aldolase, triose phosphate isomerase, glycerol-3-phosphate dehydrogenase, pyrophosphate-dependent phosphofructokinase from potato tubers and bovine serum albumin (BSA) […]

[2] = molecular target: PFKFB4 (Homo sapiens (Human), UniProt Q16877); test: PFKFB4 kinase activity, Method B (ADP-Glo Kinase Assay); assay type: biochemical
Chain of PFKFB4 (Q16877 whole entry): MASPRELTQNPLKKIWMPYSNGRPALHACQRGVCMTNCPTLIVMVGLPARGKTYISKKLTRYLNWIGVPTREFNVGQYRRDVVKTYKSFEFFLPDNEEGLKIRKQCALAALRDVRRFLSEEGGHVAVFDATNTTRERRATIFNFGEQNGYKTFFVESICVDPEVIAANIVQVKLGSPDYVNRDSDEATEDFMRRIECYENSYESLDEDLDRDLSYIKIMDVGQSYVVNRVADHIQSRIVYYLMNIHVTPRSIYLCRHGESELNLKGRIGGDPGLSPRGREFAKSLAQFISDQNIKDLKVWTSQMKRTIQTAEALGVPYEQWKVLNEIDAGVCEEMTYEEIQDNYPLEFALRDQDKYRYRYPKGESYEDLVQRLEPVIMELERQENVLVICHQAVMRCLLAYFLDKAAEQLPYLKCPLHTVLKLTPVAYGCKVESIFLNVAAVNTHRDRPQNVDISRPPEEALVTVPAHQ
Text: as §1
Method B: The kinase activity of the bi-functional enzyme is readily quantified based on the production of ADP and F-2,6-P2 from ATP and F6P. The ADP is detected with a kit, ADP-Glo™ Kinase Assay^(a-e), from Promega. The assay is a luminescent ADP detection assay that measures kinase activity by quantifying the amount of ADP produced during the kinase reaction. The assay is performed in two steps; first, after the kinase reaction, an equal volume of ADP-Glo™ Reagent is added to terminate the kinase reaction and deplete the remaining ATP. Second, the Kinase Detection Reagent is added to simultaneously convert ADP to ATP and allow the newly synthesized ATP to be measured using a luciferase/luciferine reaction. The light generated is measured using a luminescence counter (1450 MicroBeta TriLux).
The assay was performed in white 384-well microtiter plates (OptiPlate, 6007299, PerkinElmer) by consecutive additions of 0.1 μL of a test compound solution (serial diluted in DMSO from compound DMSO stock solution and dispensed by acoustic dispensing from UV-star 384-well plate 7360153, VWR), 5 μL of enzyme solution and 5 μL of a substrate (fructose-6-phosphate (F6P) and adenosine-5′-triphosphate (ATP)) containing solution. […] Four reference dose response curves, one of them being the QC compound, were included in row O1-2, P1-2, and serial diluted as the test compounds. The final concentrations of all reagents in a total assay volume of 10.1 μL per well were: • 50 mM Tris-HCl at pH 8.0 • 10 mM MgCl2 • 5 mM Na2HPO4 at pH 8.0 • 81.48 nM PFKFB3 or 145 nM PFKFB4 • 8 μM ATP • 100 μM F6P (acid treated and then neutralized to remove any contaminating F-2,6-P2; see Van Schaftingen, 1984) • 0.005% Tween-20 • 1 mM dithiothreitol (DTT) • A test compound at various concentrations or controls (final DMSO concentration 0.99%)
Enzyme, compounds and controls were pre-incubated at room temperature for 15 min before the addition of substrate solution. The enzymatic reaction was allowed to proceed for 20 min (PFKFB3) or 40 min (PFKFB4) at room temperature. The reaction was terminated by the addition of 10 μL of ADP-Glo™ Reagent to all wells and the plate was incubated for 40 min at room temperature. After addition of 20 μL Kinase Detection Reagent to all wells the plate was incubated for 30 min at room temperature, followed by measurement in 1450 MicroBeta TriLux. All plates were centrifuged after each addition (room temperature, short spin, 500 RPM, Megafuge 1.0 Heraeus Instruments).
The inhibitory potency or IC50 values of test compounds on the kinase activity of PFKFB3 or PFKFB4 were calculated using a four-parameter model (model 205) in XLfit (IDBS ActivityBase XE Runner).

Chain of PFKFB3 (Q16875 whole entry): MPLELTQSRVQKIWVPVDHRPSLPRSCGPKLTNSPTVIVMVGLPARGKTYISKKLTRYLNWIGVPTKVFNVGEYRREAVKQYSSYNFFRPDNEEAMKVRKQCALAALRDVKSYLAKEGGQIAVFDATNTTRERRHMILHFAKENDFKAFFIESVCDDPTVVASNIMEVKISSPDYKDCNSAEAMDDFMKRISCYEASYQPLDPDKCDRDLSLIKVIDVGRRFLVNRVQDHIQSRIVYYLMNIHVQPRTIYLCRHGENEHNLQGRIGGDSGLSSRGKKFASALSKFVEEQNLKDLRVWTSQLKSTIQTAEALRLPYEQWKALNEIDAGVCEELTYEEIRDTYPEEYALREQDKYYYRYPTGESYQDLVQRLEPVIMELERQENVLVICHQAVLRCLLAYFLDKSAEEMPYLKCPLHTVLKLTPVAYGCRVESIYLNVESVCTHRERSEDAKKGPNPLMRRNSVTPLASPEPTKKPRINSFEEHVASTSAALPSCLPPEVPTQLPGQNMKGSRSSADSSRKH

Row | SMILES | IC50 [1] | IC50 [2]
1 | Cc1c(S(=O)(=O)Nc2cccc(C(=O)O)c2)sc2ccc(C(C)C)cc12 [Example 5, 3-{[(5-Isopropyl-3-methyl-1-benzothien-2-yl)sulfonyl]amino}benzoic acid] | 30 nM | 60 nM
2 | Cc1c(S(=O)(=O)Nc2cccc(C(=O)O)c2)sc2ccc(Cl)cc12 [Example 38, 3-{[(5-Chloro-3-methyl-1-benzothien-2-yl)sulfonyl]amino}benzoic acid] | 180 nM | 130 nM
